Experimental data as given in article PMC5840146, “Structure-Activity Relationship Analysis of 3-Phenylcoumarin-Based Monoamine Oxidase B Inhibitors” (Frontiers in Chemistry, 2018).
pIC50: −log10 of the molar value. Values joined by “and” are separate entries in the source; they are usually repeats but may differ in a detail not shown here. Identical values can stand only once.

Legend:
[1] = target: T1, MAO-B (Homo sapiens, UniProt P27338); test: continuous spectrophotometric MAO-B inhibition assay; format: biochemical; settings: for MAO-B inhibition %: 10 µM, 2h; for LiPE: LiPE = pIC50 - QPlogPo/w, new analogs and pargyline; for pIC50: dilution series 50 μM to 1 nM, duplicates, read-out: MAO-B inhibition IC50
T1 construct: purchased Sigma-Aldrich
T1 sequence (P27338 1-520): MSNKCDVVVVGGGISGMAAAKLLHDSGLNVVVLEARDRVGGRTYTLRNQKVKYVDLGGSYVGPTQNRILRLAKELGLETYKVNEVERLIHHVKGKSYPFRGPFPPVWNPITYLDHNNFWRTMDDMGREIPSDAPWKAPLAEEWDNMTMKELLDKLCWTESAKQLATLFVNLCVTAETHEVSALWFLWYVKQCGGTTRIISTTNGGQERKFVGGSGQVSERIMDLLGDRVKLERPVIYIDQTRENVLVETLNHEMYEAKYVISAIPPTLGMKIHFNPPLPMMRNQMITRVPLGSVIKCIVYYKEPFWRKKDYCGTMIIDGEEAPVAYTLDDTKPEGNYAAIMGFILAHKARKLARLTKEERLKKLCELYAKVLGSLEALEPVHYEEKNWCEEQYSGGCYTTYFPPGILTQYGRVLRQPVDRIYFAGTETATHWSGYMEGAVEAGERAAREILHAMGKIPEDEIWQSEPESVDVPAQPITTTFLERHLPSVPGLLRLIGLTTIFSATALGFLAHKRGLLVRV
Method: (§1) Both monoamine oxidase A (MAO-A) and B (MAO-B) protein and the reagents for the chromogenic solution of vanillic acid (4-hydroxy-3-methoxylbenzoic acid, 97% purity), 4-aminoantipyrine (reagent grade), horseradish peroxidase and the substrate tyramine hydrochloride (minimum 99% purity) as well as the potassium phosphate buffer, which was prepared using potassium phosphate dibasic trihydrate (≥99% ReagentPlus™) and potassium phosphate monobasic (minimum 98% purity, molecular biology tested), were purchased from Sigma-Aldrich (St. Louis, MO, USA) for the spectrophotometric assay.
(§2) The protocol for continuous spectrophotometric assay (Holt et al., [1997]) was followed in the activity measurements. The assay was performed in 0.2 M potassium phosphate buffer pH 7.6 on 96-well plates (Nunc™ 96F microwell plate without a lid, Nunc A/S, Roskilde, DK) in 200 μl total volume. The chromogenic solution containing 1 mM vanillic acid, 500 μM 4-aminoantipyrine and 8 U/ml horseradish peroxidase in 0.2 M potassium phosphate buffer pH 7.6 was mixed anew for each measurement. 5 mM tyramine solution was used as the substrate. In order to determine the activity of both MAO-B and MAO-A, concentration series as duplicates were prepared. The protein was combined with the chromogenic solution and incubated 30 min at 37°C. The background signal was measured using multilabel reader (Victor^TM X4, 2030 Multilabel Reader, PerkinElmer, Waltham, MA, USA) at A490 before reaching the total 200 μl volume by adding 20 μl of tyramine to final concentration of 0.5 mM on the plate. As a result, the final concentration of the chromogenic solution on the plate was 250 μM vanillic acid, 125 μM 4-aminoantipyrine and 2 U/ml horseradish peroxide. After adding the substrate, the plates were measured 300 times every 15 s using 1 s exposure time. The device was set to 37°C for the duration of the experiment.
(§3) The experiment conditions should produce absorbance change of ~0.35 (Holt et al., [1997]). […] The same wide panel of coumarin derivatives was additionally used to analyze the MAO-A inhibition at 100 μM (Table 1, Supplementary Table S1).
(§4) The measured data was then fitted on a curve using non-linear regression with the equation for log[inhibitor] vs. response. The IC50 values were therefore determined based on the curve fit. The fitted curves are shown on –log scale in Supplementary Figures S1, S2.

[2] = target: T2, ERα (Homo sapiens, UniProt P03372); test: PolarScreen ER Alpha Competitor Assay (fluorescence polarization); format: binding; settings: for ER inhibition %: 10 μM
T2 construct: purchased Life Technologies
T2 sequence (P03372 1-595): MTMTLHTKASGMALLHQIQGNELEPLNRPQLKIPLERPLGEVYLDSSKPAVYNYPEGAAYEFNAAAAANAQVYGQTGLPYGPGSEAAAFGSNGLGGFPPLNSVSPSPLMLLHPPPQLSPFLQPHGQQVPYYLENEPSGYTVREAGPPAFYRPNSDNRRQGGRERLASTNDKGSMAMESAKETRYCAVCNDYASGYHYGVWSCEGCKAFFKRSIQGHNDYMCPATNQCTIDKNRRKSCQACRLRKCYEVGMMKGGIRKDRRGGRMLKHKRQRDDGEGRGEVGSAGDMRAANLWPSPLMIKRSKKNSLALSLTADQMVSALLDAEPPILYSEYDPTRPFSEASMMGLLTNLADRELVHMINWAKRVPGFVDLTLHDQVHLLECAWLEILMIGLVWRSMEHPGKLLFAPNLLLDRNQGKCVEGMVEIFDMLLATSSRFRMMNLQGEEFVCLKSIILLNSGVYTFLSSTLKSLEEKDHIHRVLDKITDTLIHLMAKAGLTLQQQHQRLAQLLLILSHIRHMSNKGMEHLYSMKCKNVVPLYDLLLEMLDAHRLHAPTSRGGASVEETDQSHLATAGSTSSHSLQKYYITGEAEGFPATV
Method: The pIC50 values for the derivatives (Table 1, Supplementary Table S1) were measured with green PolarScreen™ ER Alpha Competitor Assay (Life Technologies, CA, The United States of America) kit, following the manufacturer protocol as previously described (Niinivehmas et al., [2016]). The final concentration of the compounds ranged from 0.0007 to 10 000 nM in the dilution series which were performed as duplicates. The molecules were combined with 25 nM ERα and 4.5 nM fluormone in the assay buffer and placed on black low volume 384-well assay plate with NBS surface (Corning, NY, The United States of America). After mixing the assay plate, it was incubated for 2 h in RT. The fluorescence polarization was measured using excitation wave length 485 and emission wave length 535 with bandwidths of 25/20 nm on a 2104 EnVision® Multilabel Plate Reader which had EnVision Workstation version 1.7 (PerkinElmer, MA, The United States of America).

[3] = target: T3, MAO-A (Homo sapiens, UniProt P21397); test: continuous spectrophotometric MAO-A inhibition assay; format: biochemical; settings: for MAO-A inhibition %: 100 µM, 1h
T3 construct: purchased Sigma-Aldrich
T3 sequence (P21397 1-527): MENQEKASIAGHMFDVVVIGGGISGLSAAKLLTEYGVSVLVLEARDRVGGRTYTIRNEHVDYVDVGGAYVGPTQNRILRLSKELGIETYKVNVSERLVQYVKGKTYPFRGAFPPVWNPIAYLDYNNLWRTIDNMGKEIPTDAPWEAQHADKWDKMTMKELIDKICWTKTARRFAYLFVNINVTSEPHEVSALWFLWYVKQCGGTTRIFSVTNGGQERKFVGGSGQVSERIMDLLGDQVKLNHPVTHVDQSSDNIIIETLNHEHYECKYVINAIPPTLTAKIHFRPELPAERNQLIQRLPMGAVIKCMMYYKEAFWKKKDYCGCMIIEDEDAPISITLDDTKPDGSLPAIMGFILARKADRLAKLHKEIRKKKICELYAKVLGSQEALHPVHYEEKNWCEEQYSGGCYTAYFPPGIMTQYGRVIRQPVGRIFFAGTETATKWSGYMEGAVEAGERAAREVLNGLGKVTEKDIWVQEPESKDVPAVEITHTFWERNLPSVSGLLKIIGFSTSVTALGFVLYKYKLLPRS
Method: as §1, §2, §3, §4

[4] = target: T4, recombinant human HSD1 (Homo sapiens, UniProt P14061); test: HSD1 inhibition by HPLC with tritium labeled estrone/estradiol; format: biochemical; settings: 1 μM
T4 construct: made in house; host or cells: Sf9 insect cells
T4 sequence (P14061 1-328): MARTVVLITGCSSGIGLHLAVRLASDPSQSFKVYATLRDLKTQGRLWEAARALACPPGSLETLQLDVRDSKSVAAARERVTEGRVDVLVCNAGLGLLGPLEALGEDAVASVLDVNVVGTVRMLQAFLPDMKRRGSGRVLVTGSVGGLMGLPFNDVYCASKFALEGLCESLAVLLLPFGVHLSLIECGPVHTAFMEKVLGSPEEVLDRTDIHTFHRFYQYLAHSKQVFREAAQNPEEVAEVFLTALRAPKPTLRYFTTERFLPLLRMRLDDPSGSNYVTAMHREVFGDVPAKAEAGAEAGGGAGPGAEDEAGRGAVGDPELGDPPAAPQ

[5] = target: T5, human CYP1A2 (Homo sapiens, UniProt P05177); test: CYP1A2 inhibition, 7-ethoxyresorufin fluorescence assay; format: biochemical
T5 construct: purchased Corning Inc
T5 sequence (P05177 1-516): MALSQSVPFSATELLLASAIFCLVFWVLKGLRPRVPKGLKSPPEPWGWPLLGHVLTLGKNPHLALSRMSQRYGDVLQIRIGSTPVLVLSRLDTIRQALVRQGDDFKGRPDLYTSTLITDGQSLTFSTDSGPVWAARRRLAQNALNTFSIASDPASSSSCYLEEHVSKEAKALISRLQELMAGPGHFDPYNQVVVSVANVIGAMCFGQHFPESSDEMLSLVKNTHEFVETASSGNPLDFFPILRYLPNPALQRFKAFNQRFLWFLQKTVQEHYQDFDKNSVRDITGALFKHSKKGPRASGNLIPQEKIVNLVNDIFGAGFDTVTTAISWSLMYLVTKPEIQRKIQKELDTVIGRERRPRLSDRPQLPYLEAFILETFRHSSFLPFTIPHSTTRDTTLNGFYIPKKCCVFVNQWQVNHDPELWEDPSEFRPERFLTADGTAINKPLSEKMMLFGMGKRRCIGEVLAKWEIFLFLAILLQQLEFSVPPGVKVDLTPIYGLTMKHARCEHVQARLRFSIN
Method: Inhibition of CYP1A2 activity was determined with commercial heterologously expressed human CYP1A2 enzyme (Corning Inc., Corning, NY, USA) as described earlier (Korhonen et al., [2005]). The metabolic activity was not in the scope of this particular study. The assay was adapted to the 96-well plate format. In each well, a 150 μL incubation volume contained 100 mM Tris-HCl buffer (pH 7.4), 4.2 mM MgCl2,1 μM 7-ethoxyresorufin, 0.5 pmol of cDNA expressed CYP1A2, […] inhibitor, and a NADPH-generating system. All inhibitors were dissolved in ethanol, and the final concentration of ethanol was 2% in all incubations. The reaction was initiated by adding the NADPH-regenerating system after a 10 min preincubation at 37°C, and after a 20 min incubation, the reaction was terminated by the addition of 110 μL of 80% acetonitrile/20% 0.5 M Tris base. The formed fluorescence was measured with a Victor2 plate counter (Perkin-Elmer Life Sciences Wallac, Turku, Finland) at 570 nm excitation and 616 nm emission.

SMILES	MAO-B inhibition % [1]	ER activity (in words) [2]	ER inhibition % [2]	MAO-A inhibition % [3]	HSD1 inhibition % [4]	pIC50 [5]	inhibition at 1 µM [4]	inhibition at 10 µM [1]	LiPE [1]	pIC50 [1]	inhibition at 100 µM [3]	MAO-B inhibition (in words) [1]
O=c1oc2cc(O)ccc2cc1-c1cccc(O)c1 [derivative 40]	25.74%	prominent	18.58%	0.00%	–	–	–	–	–	–	–	–
O=c1oc2cc(O)cc(O)c2cc1-c1cccc(O)c1 [derivative 42]	23.30%	–	0.44%	48.86%	–	–	–	–	–	–	–	–
COc1ccc(-c2cc3cccc(OC(C)=O)c3oc2=O)cc1 [derivative 35]	42.37%	–	–	4.08%	0.00%	4.59	–	–	–	–	–	–
COc1ccc(-c2cc3ccc(OC(C)=O)cc3oc2=O)cc1 [derivative 13, 3-(4-methoxyphenyl)-2-oxo-2H-chromen-7-yl acetate]	–	–	–	–	–	3.24	0%	85.9%	3.30	5.71	2.48%	–
COc1cc(OC)cc(-c2cc3cc(OC)ccc3oc2=O)c1 [derivative 9, 3-(3,5-dimethoxyphenyl)-6-methoxy-2H-chromen-2-one]	–	–	–	–	–	4.08	0%	80.2%	3.38	~6.59 and 6.59	0%	–
CC(=O)Oc1ccc(-c2cc3cc(Cl)cc(Cl)c3oc2=O)cc1F [derivative 7, 4-(6,8-dichloro-2-oxo-2H-chromen-3-yl)-2-fluorophenyl acetate]	–	–	–	–	–	4.34	0%	91%	2.69	6.05	0%	–
CC(=O)Oc1cccc2cc(-c3ccc(N(C)C)cc3)c(=O)oc12 [derivative 26]	66.79%	–	–	0.00%	0.00%	5.15	–	–	–	–	–	–

More lines, now with the values ahead:

MAO-B inhibition % [1]	ER activity (in words) [2]	ER inhibition % [2]	MAO-A inhibition % [3]	HSD1 inhibition % [4]	pIC50 [5]	inhibition at 1 µM [4]	inhibition at 10 µM [1]	LiPE [1]	pIC50 [1]	inhibition at 100 µM [3]	MAO-B inhibition (in words) [1]	SMILES
22.93%	–	0.00%	56.76%	–	–	–	–	–	–	–	–	O=c1oc2c(O)cccc2cc1-c1cccc(O)c1 [derivative 43]
21.38%	–	0.13%	43.38%	–	–	–	–	–	–	–	–	O=c1oc2cc(O)cc(O)c2cc1-c1ccc(O)cc1 [derivative 45]
10.23%	–	0.66%	0.00%	1.30%	–	–	–	–	–	–	–	O=c1oc2c(Cl)cc(Cl)cc2cc1-c1ccc(F)cc1 [derivative 49]
6.66%	–	–	0.00%	31.60%	5.52	–	–	–	–	–	–	COc1ccc2cc(-c3cccc(OCc4ccccc4)c3)c(=O)oc2c1 [derivative 51]
0.00%	–	–	0.00%	0.70%	4.10	–	–	–	–	–	activity is lost	CC(=O)Oc1ccc2cc(-c3ccccc3)c(=O)oc2c1 [derivative 52]
22.52%	prominent	96.18%	22.39%	–	–	–	–	–	–	–	–	O=c1oc2c(O)cccc2cc1-c1ccc(O)cc1 [derivative 44]
